This experiment has as its target Rho kinase (fused protein of bovine Rho kinase catalyst region and glutathione S-transferase) (Bos taurus, UniProt Q28021). Briefly: Rho kinase inhibitory activity (phosphorylation of S6 231–239 substrate, γ32P-ATP). The experiment is classed as biochemical. The note with it: concentration inhibiting substrate phosphorylation by 50%. The protocol:
This permits the substrate to be labeled with the radioisotope.
Thereafter, the substrate was adsorbed to a filter paper. ATP was washed away with a phosphoric acid solution, and the amount of the phosphorylated substrate was then measured with a liquid scintillation counter.
Rho kinase (fused protein of bovine Rho kinase catalyst region and glutathione S-transferase), sequence (Q28021 92-354 limits assumed): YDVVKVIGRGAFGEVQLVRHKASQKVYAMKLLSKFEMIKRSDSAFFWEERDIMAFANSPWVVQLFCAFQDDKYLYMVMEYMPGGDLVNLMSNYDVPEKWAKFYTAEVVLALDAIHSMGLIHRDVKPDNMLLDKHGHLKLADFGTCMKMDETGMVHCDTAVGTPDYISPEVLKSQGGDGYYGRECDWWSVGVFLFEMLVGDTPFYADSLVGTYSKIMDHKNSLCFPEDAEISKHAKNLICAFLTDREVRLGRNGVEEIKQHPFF
Consider `COc1ccc(CN2CCC(Nc3ccc4[nH]ncc4c3)CC2)cc1` [Example 138, N-(1H-5-Indazolyl)-N-[1-(4-methoxybenzyl)-4-piperidyl]amine], for which the IC50 (as a rule, the concentration needed to halve the response being measured) came out at 355 nM.
In the case of `Cc1ccc(CN2CCC(Nc3ccc4[nH]ncc4c3)CC2)cc1` [Example 139, N-(1H-5-Indazolyl)-N-[1-(4-methylbenzyl)-4-piperidyl]amine] it was 250 nM.
The same measure for `O=[N+]([O-])c1cccc(CN2CCC(Nc3ccc4[nH]ncc4c3)CC2)c1` [Example 140, N-(1H-5-Indazolyl)-N-[1-(3-nitrobenzyl)-4-piperidyl]amine]: 465 nM; for `O=[N+]([O-])c1ccc(CN2CCC(Nc3ccc4[nH]ncc4c3)CC2)cc1` [Example 141, N-(1H-5-Indazolyl)-N-[1-(4-nitrobenzyl)-4-piperidyl]amine]: 661 nM; for `c1ccc(COc2ccc(CN3CCC(Nc4ccc5[nH]ncc5c4)CC3)cc2)cc1` [Example 142, N-{1-[4-(Benzyloxy)benzyl]-4-piperidyl}-N-(1H-5-indazolyl)amine]: 655 nM.
In the case of `COc1cc(CN2CCC(Nc3ccc4[nH]ncc4c3)CC2)cc(OC)c1` [Example 143, N-[1-(3,5-Dimethoxybenzyl)-4-piperidyl]-N-(1H-5-indazolyl)amine] it was 399 nM.
`Clc1cc2c(cc1CN1CCC(Nc3ccc4[nH]ncc4c3)CC1)OCO2` [Example 144, N-{1-[(6-Chloro-1,3-benzodioxol-5-yl)methyl]-4-piperidyl}-N-(1H-5-indazolyl)amine] registered a half-maximal inhibitory concentration (IC50) of 453 nM.
The same measure for `Oc1ccc(CN2CCC(Nc3ccc4[nH]ncc4c3)CC2)cc1` [Example 145, 4-{[4-(1H-5-Indazolylamino)piperidino]methyl}phenol]: 290 nM.
Consider `COC(=O)c1cccc(CN2CCC(Nc3ccc4[nH]ncc4c3)CC2)c1` [Example 147, Methyl 3-{[4-(1H-5-indazolylamino)piperidino]methyl}benzoate], for which inhibition was half-maximal at 462 nM (IC50).
In the case of `COC(=O)c1ccc(CN2CCC(Nc3ccc4[nH]ncc4c3)CC2)cc1` [Example 148, Methyl 4-{[4-(1H-5-indazolylamino)piperidino]methyl}benzoate] it was 166 nM.
In the case of `CC(=O)Oc1ccc(CN2CCC(Nc3ccc4[nH]ncc4c3)CC2)cc1` [Example 149, 4-{[4-(1H-5-Indazolylamino)piperidino]methyl}phenyl acetate] it was 204 nM.
The compound `Fc1cccc(Cl)c1CN1CCC(Nc2ccc3[nH]ncc3c2)CC1` [Example 150, N-[1-(2-Chloro-6-fluorobenzyl)-4-piperidyl]-N-(1H-5-indazolyl)amine] showed an IC50 of 821 nM.
The same measure for `Clc1ccccc1CN1CCC(Nc2ccc3[nH]ncc3c2)C1` (centres unmarked) [Example 151, N-[1-(2-Chlorobenzyl)tetrahydro-1H-3-pyrrolyl]-N-(1H-5-indazolyl)amine]: 45 nM; for `Fc1ccc(CN2CCC(Nc3ccc4[nH]ncc4c3)C2)cc1` (centres unmarked) [Example 154, N-[1-(4-Fluorobenzyl)tetrahydro-1H-3-pyrrolyl]-N-(1H-5-indazolyl)amine]: 84 nM.
`Brc1ccc(CN2CCC(Nc3ccc4[nH]ncc4c3)C2)cc1` (centres unmarked) [Example 155, N-[1-(4-Bromobenzyl)tetrahydro-1H-3-pyrrolyl]-N-(1H-5-indazolyl)amine] returned an IC50 of 24 nM.
In turn, `COc1ccc(CN2CCC(Nc3ccc4[nH]ncc4c3)C2)cc1` (centres unmarked) [Example 156, N-(1H-5-Indazolyl)-N-[1-(4-methoxybenzyl)tetrahydro-1H-3-pyrrolyl]amine] yielded an IC50 of 2 nM.
For `Cc1ccc(CN2CCC(Nc3ccc4[nH]ncc4c3)C2)cc1` (centres unmarked) [Example 157, N-(1H-5-Indazolyl)-N-[1-(4-methylbenzyl)tetrahydro-1H-3-pyrrolyl]amine], the 50% inhibitory concentration (IC50) amounted to 22 nM.
The same measure for `O=[N+]([O-])c1cccc(CN2CCC(Nc3ccc4[nH]ncc4c3)C2)c1` (centres unmarked) [Example 158, N-(1H-5-Indazolyl)-N-[1-(3-nitrobenzyl)tetrahydro-1H-3-pyrrolyl]amine]: 5 nM; for `O=[N+]([O-])c1ccc(CN2CCC(Nc3ccc4[nH]ncc4c3)C2)cc1` (centres unmarked) [Example 159, N-(1H-5-Indazolyl)-N-[1-(4-nitrobenzyl)tetrahydro-1H-3-pyrrolyl]amine]: 12 nM; for `COc1cc(CN2CCC(Nc3ccc4[nH]ncc4c3)C2)cc(OC)c1` (centres unmarked) [Example 160, N-[1-(3,5-Dimethoxybenzyl)tetrahydro-1H-3-pyrrolyl]-N-(1H-5-indazolyl)amine]: 1 nM.
In the case of `Clc1ccccc1CN1CCCC(Nc2ccc3[nH]ncc3c2)C1` (centres unmarked) [Example 161, N-[1-(2-Chlorobenzyl)-3-piperidyl]-N-(1H-5-indazolyl)amine] it was 13 nM; in that of `Clc1cccc(CN2CCCC(Nc3ccc4[nH]ncc4c3)C2)c1` (centres unmarked) [Example 162, N-[1-(3-Chlorobenzyl)-3-piperidyl]-N-(1H-5-indazolyl)amine], 19 nM; in that of `Clc1ccc(CN2CCCC(Nc3ccc4[nH]ncc4c3)C2)cc1` (centres unmarked) [Example 163, N-[1-(4-Chlorobenzyl)-3-piperidyl]-N-(1H-5-indazolyl)amine], 11 nM.
In the case of `Brc1ccc(CN2CCCC(Nc3ccc4[nH]ncc4c3)C2)cc1` (centres unmarked) [Example 165, N-[1-(4-Bromobenzyl)-3-piperidyl]-N-(1H-5-indazolyl)amine] it was 11 nM; in that of `COc1ccc(CN2CCCC(Nc3ccc4[nH]ncc4c3)C2)cc1` (centres unmarked) [Example 166, N-(1H-5-Indazolyl)-N-[1-(4-methoxybenzyl)-3-piperidyl]amine], 16 nM; in that of `Cc1ccc(CN2CCCC(Nc3ccc4[nH]ncc4c3)C2)cc1` (centres unmarked) [Example 167, N-(1H-5-Indazolyl)-N-[1-(4-methylbenzyl)-3-piperidyl]amine], 9 nM.
In turn, `O=[N+]([O-])c1ccc(CN2CCCC(Nc3ccc4[nH]ncc4c3)C2)cc1` (centres unmarked) [Example 169, N-(1H-5-Indazolyl)-N-[1-(4-nitrobenzyl)-3-piperidyl]amine] showed a half-maximal inhibitory concentration (IC50) of 87 nM.
As for `COc1cc(CN2CCCC(Nc3ccc4[nH]ncc4c3)C2)cc(OC)c1` (centres unmarked) [Example 170, N-[1-(3,5-Dimethoxybenzyl)-3-piperidyl]-N-(1H-5-indazolyl)amine], the midpoint of inhibition, the IC50, lay at 80 nM.
In the case of `c1ccc(NC2CCC(Nc3ccc4[nH]ncc4c3)CC2)cc1` (centres unmarked) [Example 172, N1-(1H-5-Indazolyl)-N4-phenyl-1,4-cyclohexanediamine] it was 265 nM; in that of `O=C(CNCc1ccccc1)Nc1ccc2[nH]ncc2c1` [Example 173, N1-(1H-5-Indazolyl)-2-(benzylamino)acetamide], 446 nM; in that of `c1ccc(CNCCNc2ccc3[nH]ncc3c2)cc1` [Example 174, N1-Benzyl-N2-(1H-5-indazolyl)-1,2-ethanediamine], 163 nM.
The same measure for `CC(=O)n1ncc2cc(NC3CCN(Cc4ccccc4)CC3)ccc21` [Example 176, 1-{5-[(1-Benzyl-4-piperidyl)amino]-1H-5-indazolyl}-1-ethanone]: 4 nM.
